Source: publication PMC11809415 (The Journal of Cell Biology, 2025)
“Also recorded” adds a separate entry of the source.

Key:
[1] = target: F-actin; assay: High-speed cosedimentation with F-actin (120,000 g), SDS-PAGE densitometry; format: binding, rabbit skeletal muscle α-actin; settings: for Fraction bound: 2 μM mCherry fusion
Description: (§1) Rabbit skeletal muscle α-actin was purified from muscle acetone powder (Pel-Freez Biologicals) as described in [Merino et al. (2018)] and stored in 50 μl aliquots at −70°C.
A single colony was inoculated into 200 ml of LB media and grown at 37°C. At OD600 0.6–1.0, protein expression was induced by the addition of IPTG to a final concentration of 0.02 mM. After 16 h of expression at 22°C, the cells were harvested by centrifugation, resuspended in TBS (20 mM Tris pH 8 and 150 mM NaCl), and lysed by sonication. The soluble fraction was applied on TBS-equilibrated Protino Ni-IDA resin (Macherey-Nagel), washed, eluted with TBS supplemented with 250 mM imidazole, dialyzed against TBS, and stored at −20°C.
Freshly thawed mammalian α-actin was spun down at 120,000 g for 20 min at 4°C using a TLA-120.1 rotor, and the supernatant containing G-actin was collected. The protein was then polymerized by incubation in F buffer (120 mM KCl, 20 mM Tris pH 8, 2 mM MgCl2, 1 mM DTT, and 1 mM ATP) for 2 h on ice. Cosedimentation assays were performed in 20 μl volumes by first incubating F-actin with F-tractinopt-mCherry fusions for 5 min at room temperature and then centrifuging at 120,000 g using the TLA-120.1 rotor for 20 min at 4°C. After centrifugation, aliquots of the supernatant and resuspended pellet fractions were separated on SDS-polyacrylamide gels with 2,2,2-trichloroethanol ([Ladner-Keay et al., 2018]), visualized under ultraviolet light, and analyzed by densitometry using ImageJ (RRID:SCR_003070). The Kd values were calculated using GraphPad Prism software (RRID:SCR_002798).

[2] = test system: U-2 OS cells (phalloidin-stained actin); assay: Colocalization with phalloidin in U-2 OS cells (Pearson correlation); format: cell-based, human; settings: EGFP fusions
[3] = test system: actin (ADP-ribosylation by TcART, Photorhabdus luminescens); assay: ADP-ribosylation of actin by TcART in presence of actin-binding peptides; format: biochemical, rabbit skeletal muscle α-actin; settings: for ADP-ribosylation level: relative to no peptide = 1, […] actin, 314 pM TcART, 10 min 37°C; for effect on TcART modification of F-actin (in words): peptides up to 100 µM
Description: as §1
TcART, the ADP-ribosyltransferase from P. luminescens Tc toxin, was purified from E. coli BL21-CodonPlus(DE3)-RIPL harboring the plasmid pB656 as described previously ([Belyy et al., 2022]).
A total of 8-μl mixtures of 2 μg (4.8 μM final concentration) actin and actin-binding peptides at specified concentrations were preincubated for 5 min at room temperature in the buffer containing 1 mM NAD, 20 mM Tris pH 8, 150 mM NaCl, and 1 mM MgCl2. The ADP ribosylation reaction was initiated by the addition of 0.2 ng (314 pM) of TcART to the mixture. After 10 min of incubation at 37°C, the reaction was stopped by adding Laemmli sample buffer and heating the sample at 95°C for 5 min. The components of the mixture were separated by SDS-PAGE, blotted onto a polyvinylidene difluoride (PVDF) membrane using a Trans-Blot Turbo Transfer System (Bio-Rad), and visualized using a combination of the His-tagged ADP-ribose binding protein at the concentration of 0.01 mg/ml and HisProbe-HRP conjugate. The level of actin ADP-ribosylation was quantified by densitometry using ImageJ.

[4] = test system: F-actin; assay: Actin bundling assay using low-speed centrifugation (10,000 g); format: biochemical, rabbit skeletal muscle α-actin; settings: for F-actin in the pellet: 10 μM actin filaments, 5 min RT, 10,000 g
Description: as §1
8 μl of actin filaments at 10 μM were mixed with peptides at the specified concentration, incubated for 5 min at room temperature, and spun down at 10,000 g for 10 min at 4°C. Aliquots of the supernatant and resuspended pellet fractions were separated on SDS-polyacrylamide gels with 2,2,2-trichloroethanol ([Ladner-Keay et al., 2018]) and visualized with ultraviolet light.

[5] = test system: U-2 OS cells; assay: FRAP recovery half time in U-2 OS cells; format: cell-based, human; settings: EGFP fusions
[6] = test system: U-2 OS cells (actin fibers); assay: Signal-to-noise ratio (fibers/cytosol) in U-2 OS cells; format: cell-based, human; settings: EGFP fusions, compared with WT F-tractin
[7] = test system: U-2 OS cells; assay: Nuclear signal enrichment in U-2 OS cells; format: cell-based, human; settings: EGFP fusions
[8] = ref Coluccio and Tilney, 1984; cited from earlier work
From the text: Phalloidin, a cyclic peptide derived from the fungus Amanita phalloides, was one of the first probes used for F-actin labeling ([Wehland et al., 1977]; [Wulf et al., 1979]). […] The need to visualize actin dynamics led to the development of genetically encoded fluorescent probes. Chimeras of green fluorescent protein ...

[9] = test system: F-actin; settings: ref Melak et al., 2017; cited from earlier work
From the text: Phalloidin, a cyclic peptide derived from the fungus Amanita phalloides, was one of the first probes used for F-actin labeling ([Wehland et al., 1977]; [Wulf et al., 1979]). […] The need to visualize actin dynamics led to the development of genetically encoded fluorescent probes. Chimeras of green fluorescent protein ... || In live cell imaging experiments, F-tractin is typically used as a fusion of fluorescent proteins. […] However, a comparison of both markers has been largely limited to characterizations in cells ([Belin et al., 2014]; [Spracklen et al., 2014]; [Vosatka et al., 2022]). With structures of both probes in complex with F-actin available, we can now directly compare their actin interactions in atomic detail (Fig. 4, A–C). Both probes are at their core amphipathic helices that bind to overlapping interfaces of consecutive actin subunits, indicating a preference for “aged” A ...

With “APRRSVGELRLLAEARAASAA [F29A F-tractinopt, mCherry fusion in cosedimentation, EGFP fusion in cells]” the Kd ([1]; 2 μM probe as mCherry fusion, F-actin titrated, 5 min at room temperature, three independent experiments) was greater than 100 µM, the Fraction bound ([1]; F-actin 2 µM, Repeat 1) was 0,02963 and the Fraction bound ([1]; F-actin 2 µM, Repeat 2) was 0,031317. For the same substance, the Fraction bound ([1]; F-actin 2 µM, Repeat 3) was 0,036, the Fraction bound ([1]; F-actin 5 µM, Repeat 1) was 0,020561 and the Fraction bound ([1]; F-actin 5 µM, Repeat 2) was 0,008869. The Fraction bound ([1]; F-actin 5 µM, Repeat 3) was 0,001393, the Fraction bound ([1]; F-actin 10 µM, Repeat 1) was 0,051546 and the Fraction bound ([1]; F-actin 10 µM, Repeat 2) was 0,016783. The Fraction bound ([1]; F-actin 10 µM, Repeat 3) was 0,023887, the Fraction bound ([1]; F-actin 20 µM, Repeat 1) was 0,035971 and the Fraction bound ([1]; F-actin 20 µM, Repeat 2) was 0,051087. The Fraction bound ([1]; F-actin 20 µM, Repeat 3) was 0,050633, the Fraction bound ([1]; F-actin 40 µM, Repeat 1) was 0,071269 and the Fraction bound ([1]; F-actin 40 µM, Repeat 2) was 0,046373. For the same substance, the Fraction bound ([1]; F-actin 40 µM, Repeat 3) was 0,065217, the “affinity for F-actin (in words)” value ([1]; cosedimentation, mCherry fusions of F-tractinopt variants) was “barely detectable in the pellet at the highest concentration of F-actin used” and the “binding to actin in cells (in words)” value [2] was “completely failed to bind to actin in cells”. For the same substance, the ADP-ribosylation level ([3]; peptide 100 µM, Repeat 1) was 0,715886, the ADP-ribosylation level ([3]; peptide 100 µM, Repeat 2) was 1,144903 and the ADP-ribosylation level ([3]; peptide 100 µM, Repeat 3) was 1,162086. For the same substance, the “effect on TcART modification of F-actin (in words)” value [3] was “did not interfere with TcART modification of F-actin”.

With “APRRSVGELRLLFEARAASAA [F-tractinopt, optimized F-tractin peptide; mCherry fusion in cosedimentation, EGFP fusion in cells]” the Fraction bound ([1]; F-actin 2 µM, Repeat 1) was 0,113982, the Fraction bound ([1]; F-actin 2 µM, Repeat 2) was 0,125633 and the Fraction bound ([1]; F-actin 2 µM, Repeat 3) was 0,150215. For the same substance, the Fraction bound ([1]; F-actin 5 µM, Repeat 1) was 0,211009, the Fraction bound ([1]; F-actin 5 µM, Repeat 2) was 0,27957 and the Fraction bound ([1]; F-actin 5 µM, Repeat 3) was 0,318841. For the same substance, the Fraction bound ([1]; F-actin 10 µM, Repeat 1) was 0,480176, the Fraction bound ([1]; F-actin 10 µM, Repeat 2) was 0,433657 and the Fraction bound ([1]; F-actin 10 µM, Repeat 3) was 0,418605. The Fraction bound ([1]; F-actin 20 µM, Repeat 1) was 0,569748, the Fraction bound ([1]; F-actin 20 µM, Repeat 2) was 0,578018 and the Fraction bound ([1]; F-actin 20 µM, Repeat 3) was 0,523474. For the same substance, the Fraction bound ([1]; F-actin 40 µM, Repeat 1) was 0,557282, the Fraction bound ([1]; F-actin 40 µM, Repeat 2) was 0,621935 and the Fraction bound ([1]; F-actin 40 µM, Repeat 3) was 0,643478. The “actin bundling (in words)” value ([4]; in vitro, up to 100 µM, low-speed centrifugation and cryo-EM) was “minimal actin bundling”, the “F-actin in the pellet” value ([4]; peptide 1 µM, Repeat 1) was 0,098435 and the “F-actin in the pellet” value ([4]; peptide 1 µM, Repeat 2) was 0,057915. For the same substance, the “F-actin in the pellet” value ([4]; peptide 1 µM, Repeat 3) was 0,103265, the “F-actin in the pellet” value ([4]; peptide 100 µM, Repeat 1) was 0,099007 and the “F-actin in the pellet” value ([4]; peptide 100 µM, Repeat 2) was 0,095989. For the same substance, the “F-actin in the pellet” value ([4]; peptide 100 µM, Repeat 3) was 0,158954, the “F-actin in the pellet” value ([4]; peptide 1000 µM, Repeat 1) was 0,238373 and the “F-actin in the pellet” value ([4]; peptide 1000 µM, Repeat 2) was 0,117922. The “F-actin in the pellet” value ([4]; peptide 1000 µM, Repeat 3) was 0,212762, the “exchange / recovery in FRAP (in words)” value [5] was “exchanged faster than WT F-tractin; also recorded: FRAP recovery rates” and the “signal-to-noise ratio between actin fibers and cytosol (in words)” value [6] was “behave very similarly (no”. For the same substance, the ADP-ribosylation level ([3]; peptide 1 µM, Repeat 1) was 1,245716, the ADP-ribosylation level ([3]; peptide 1 µM, Repeat 2) was 0,95033 and the ADP-ribosylation level ([3]; peptide 1 µM, Repeat 3) was 1,419998. The ADP-ribosylation level ([3]; peptide 3 µM, Repeat 1) was 1,210256, the ADP-ribosylation level ([3]; peptide 3 µM, Repeat 2) was 1,296322 and the ADP-ribosylation level ([3]; peptide 3 µM, Repeat 3) was 1,29383. For the same substance, the ADP-ribosylation level ([3]; peptide 10 µM, Repeat 1) was 0,846657, the ADP-ribosylation level ([3]; peptide 10 µM, Repeat 2) was 0,728925 and the ADP-ribosylation level ([3]; peptide 10 µM, Repeat 3) was 1,078508. For the same substance, the ADP-ribosylation level ([3]; peptide 30 µM, Repeat 1) was 0,320904, the ADP-ribosylation level ([3]; peptide 30 µM, Repeat 2) was 0,220558 and the ADP-ribosylation level ([3]; peptide 30 µM, Repeat 3) was 0,140877. The ADP-ribosylation level ([3]; peptide 100 µM, Repeat 1) was 0,032604, the ADP-ribosylation level ([3]; peptide 100 µM, Repeat 2) was 0,100767 and the ADP-ribosylation level ([3]; peptide 100 µM, Repeat 3) was 0,002262. The “effect on TcART modification of F-actin (in words)” value [3] was “inhibited TcART activity in a similar dose-dependent manner” and the “nuclear enrichment (in words)” value [7] was “slightly higher accumulation of F-tractinopt in the nucleus”.

For Phalloidin, the membrane permeability [8] is given as “low membrane permeability” and the “affinity and selectivity for F-actin” value [9] is given as “high affinity and selectivity for F-actin”.
